According to US9572821B2, “Pharmaceutical compositions for preventing and treating eye pathologies” (MITOTECH SA, priority 2006, dated 2017):

Tests used:
Assay type in all cases: in vivo, rat
[1] = system: cataract in OXYS rats; assay: Prophylactic effect on cataract (lens changes), ophthalmoscopic examination of OXYS rats; conditions: for lens changes observed/registered (cataract morbidity): after oral course from 1.5 to 3 months, % of eyes/cases; for lens changes observed/registered (cataract morbidity) / cataract newly affected/added during the course (20% of eyes already affected at 1.5 months): SkQ1 or KBr 50 nmol per kg; for 2nd stage of cataract: KBr: % of total number of eyes, vitamin E: % of changes
Experimental: (§1) The study was carried out using OXYS and Wistar male rats. The animals were housed in cages (five rats per a cage) and kept under standard laboratory conditions (at 22±1° C., 60% relative humidity, and natural light), provided with a standard rodent diet (PK-120-1, Ltd. ‘Laboratorsnab’, Russia), and given water ad libitum. At the age of 1.5 months after preliminary pupil dilation with 1% tropicamide ophthalmic the rats were examined by ophthalmologist. During the period from 1.5 to 3 months, which is critical for the development of pronounced changes in eye organ of OXYS rats, the animals were given either SkQ1 (50 nmol per kg of body weight), or KBr (50 nmol per kg of body weight) or vitamin E (alfa-tocopherol acetate, 20 mg per kg). We use Vitamin E for a comparison with test antioxidants. Animals received the compounds on a small piece of dried bread before a regular meal, and the control group of animals received the same piece of bread without any compound. After completing the course of antioxidants the animals were weighed and retested with ophthalmoscope. To avoid human factor in the evaluation of compound effects, the researcher who conducted the ophthalmoscopic examination was not told which of the animals received antioxidants.
(§2) The ophthalmoscopic examination was carried out using direct ophthalmoscope “Betta”, Germany. In selected animals under fluorotane narcosis (1-1.5 minutes) eyeground was photographed, fluorescent angiography with the use of “Opton” fundus-camera was conducted or crystalline lenses were examined by means of slitlamp “Opton SL30” using system of automatic image registration (biomicroscopic research).
(§3) The lens state was evaluated according to the classification system accepted in clinical practice (L. A. Katsnelson, T. I. Forofonova, A. Ya. Bunin, 1990) with grades ranging from 0 to 3: score 0—the lens is clear; score 1—spotted weak cloudiness; score 2—multiple spots of cloudiness and score 3—intense cloudiness of the lens core and nucleus. The presence and the degree of spotted changes in macular area were evaluated according to accepted classification: score 0—no changes; score 1—the 1st stage of pathology, when small yellow deposits, known as “drusen” appear underneath the macula; score 2—2nd stage, the development of prominent yellow spot with sharp edges with the size of 0.5 to 1 of the disk diameter (exudative detachment of pigment retinal epithelium); and score 3—3rd stage with extensive hemorrhage into macular area.
(§4) Statistical processing of the results was carried out using the factorial dispersive analysis (ANOVA/MANOVA, Statistica, 5) with post hoc comparison of group average (Newman-Keul test) considering genotype and preparation as independent factors.

[2] = system: macular dystrophy in OXYS rats; assay: Prophylactic effect on macular dystrophy (changes in macular area of retina), ophthalmoscopic examination of OXYS rats; conditions: for changes in the macular area of the retina (macular dystrophy morbidity): after oral course from 1.5 to 3 months, % of eyes/cases; for changes in the macular area of the retina (macular dystrophy morbidity) / macular dystrophy newly affected during the course (10% already affected at 1.5 months): SkQ1 or KBr 50 nmol per kg; for 2nd stage of macular degeneration: KBr: % of these changes
Experimental: as §1, §2, §3, §4

[3] = system: cataract in OXYS rats; assay: Therapeutic effect on state of crystalline lenses, OXYS rats aged 10.5 months; conditions: for pathological changes of lenses, before vs after the therapy course: 10.5 to 12 months, pair comparisons / comparison of average values; for Changes of lenses, grades (score): examination after therapy course at the age of 12 months, 50 nmol per kg of body weight, score 0-3
Experimental: as §1, with “[…],” for “During the period from 1.5 to 3 months,”
as §2, §3, §4

[4] = system: retina of Wistar rats; assay: Therapeutic experiment, macular area of retina, Wistar rats aged 10.5 months; conditions: for Changes of macular area of retina, grades (score): Wistar rats, examination after therapy course at the age of 12 months, 50 nmol per kg of body weight, score 0-3
Experimental: as §1, with “by ophthalmologist. […], which is” for “by ophthalmologist. During the period from 1.5 to 3 months, which is”, “received antioxidants. […]” for “received antioxidants.”
(§5) The lens state was evaluated according to the classification system accepted in clinical practice (L. A. Katsnelson, T. I. Forofonova, A. Ya. Bunin, 1990) with grades ranging from 0 to 3: score 0—the lens is clear; score 1—spotted weak cloudiness; score 2—multiple spots of cloudiness and score 3—intense cloudiness of the lens core and nucleus. The presence and the degree of spotted changes in macular area were evaluated according to accepted classification: score 0—no changes; score 1—the 1st stage of pathology, when small yellow deposits, known as “drusen” appear underneath the macula; score 2—2nd stage, the development of prominent yellow spot with sharp edges with the size of 0.5 to 1 of the disk diameter (exudative detachment of pigment retinal epithelium); and score 3—3rd stage with extensive hemorrhage into macular area. […]

[5] = system: macular dystrophy (retinopathy) in OXYS rats; assay: Therapeutic effect on macular area of retina, OXYS rats aged 10.5 months; conditions: for pathological changes of retina, before vs after the therapy course / Changes of macular area of retina, grades (score): OXYS rats; for pathological changes of retina, before vs after the therapy course: 10.5 to 12 months, pair comparisons / comparison of average values; for Changes of macular area of retina, grades (score): examination after therapy course at the age of 12 months, 50 nmol per kg of body weight, score 0-3
Experimental: as §1, with “During the period from 1.5 to 3 months, which is critical for the development of pronounced changes in eye organ of OXYS rats, the animals were given either SkQ1 (50 nmol per kg of body weight), or KBr (50 nmol per kg of body weight) or vitamin E (alfa-tocopherol acetate, 20 mg per kg).” left out
as §2, §3, §4

[6] = system: lenses of Wistar rats; assay: Therapeutic experiment, state of crystalline lenses, Wistar rats aged 10.5 months; conditions: examination after therapy course at the age of 12 months, 50 nmol per kg of body weight, score 0-3
Experimental: The study was carried out using OXYS and Wistar male rats. The animals were housed in cages (five rats per a cage) and kept under standard laboratory conditions (at 22±1° C., 60% relative humidity, and natural light), provided with a standard rodent diet (PK-120-1, Ltd. ‘Laboratorsnab’, Russia), and given water ad libitum. At the age of 1.5 months after preliminary pupil dilation with 1% tropicamide ophthalmic the rats were examined by ophthalmologist. […]
as §5

[7] = OXYS rats at 3 months, after course from 1.5 to 3 months, SkQ1 50 nmol per kg
[8] = OXYS rats at 3 months, vitamin E 20 mg per kg
[9] = OXYS rats, 1.5 to 3 months, SkQ1 50 nmol per kg
[10] = OXYS rats, 1.5 to 3 months, vitamin E 20 mg per kg
[11] = one month after the end of SkQ1 administration, in contrast to the control group
[12] = OXYS rats after SkQ1 therapy course
[13] = OXYS rats at 3 months, after course from 1.5 to 3 months

SMILES	lens changes observed/registered (cataract morbidity) [1, 8] [%]	cataract newly affected/added during the course (20% of eyes already affected at 1.5 months) [1, 10] [%]	changes in the macular area of the retina (macular dystrophy morbidity) [2, 8] [%]	macular dystrophy newly affected during the course (10% already affected at 1.5 months) ([2]; OXYS rats, 1.5 to 3 months) [%]	pathological changes of lenses, before vs after the therapy course [3]	Changes of lenses, grades (score) [3] [score]	Changes of macular area of retina, grades (score) [4] [score]	pathological changes of retina, before vs after the therapy course [5]	Changes of macular area of retina, grades (score) [5] [score]	Changes of lenses, grades (score) [6] [score]	2nd stage of cataract [1, 13] [%]	2nd stage of macular degeneration [2, 13] [%]	other results
CC1=C(C)C(=O)C(CCCCCCCCCC[P+](c2ccccc2)(c2ccccc2)c2ccccc2)=CC1=O.[Br-] [SkQ1]	46	26	38	28	much less pronounced	0.41 ± 0.13	0.09 ± 0.06	much less pronounced	0.32 ± 0.13	0.54 ± 0.14	–	–	stage to which the lens changes corresponded [1, 7]: 1st stage of cataract; cataract cases, times less than in the group supplemented with KBr [1, 9]: 2.8 times; effect on cataract progression ([1]; OXYS rats, FIG. 3): essentially affected their progression; changes in the state of crystalline lens after the end of the course [1, 11]: no any changes; stage to which the macular changes corresponded [2, 7]: 1st stage of macular degeneration; macular dystrophy cases, times less than in the control group [2, 9]: 2.8 times; effect on macular dystrophy progression ([2]; OXYS rats, FIG. 4): essentially affected their progression; changes in the state of retina after the end of the course [2, 11]: no any changes; animals with changes of retina appropriate to even the most initial stage of disease ([4]; Wistar rats supplemented with SkQ1, after 45 days): practically absent; hemorrhages in retina [5, 12]: resolution of hemorrhages; ischemic centers in retina [5, 12]: reduction of quantity and area of ischemic centers; puffiness of retina [5, 12]: significant reduction of puffiness
CC(=O)Oc1c(C)c(C)c2c(c1C)CCC(C)(CCC[C@H](C)CCC[C@H](C)CCCC(C)C)O2 (some centres unmarked) [vitamin E, alfa-tocopherol acetate]	58	38	54	–	–	–	–	–	–	–	12	8	cataract cases, times less than in the control intact group [1, 10]: 1.8 times; macular changes, times less than in the control intact group [2, 10]: 1.5 times
[Br-].[K+] [KBr, reference compound]	93	73	87	77	authentically aggravated	1.6 ± 0.23	0.25 ± 0.10	no any changes	1.13 ± 0.17	0.5 ± 0.15	57	13	–
